The nature of the series: xn = mol fraction of the nth substance listed. The following applies: 298.15 K, 101 kPa.

Our source for the viscosity values is a compilation of properties of binary mixtures (doi:10.1007/s10953-012-9937-x).

The structures appear in SMILES notation.

What is called viscosity is the resistance of a fluid to flow.

Regarding `CCCCCCCCn1cc[n+](C)c1.F[B-](F)(F)F` + CCC(C)=O, the viscosity reads like this: (x2 = 0) 336 mPa·s; (x2 = 0.209) 100.3 mPa·s; (x2 = 0.2713) 69.9 mPa·s; (x2 = 0.3991) 34.24 mPa·s; (x2 = 0.5032) 18.4 mPa·s; (x2 = 0.551) 13.82 mPa·s. The viscosity (x2 = 0.6006) came out at 10.26 mPa·s, the viscosity (x2 = 0.6442) was 7.54 mPa·s and the viscosity (x2 = 0.9518) is listed as 0.63 mPa·s.
For the setting “x1 = 1”, `CCC(C)=O` + CCCCCCCCn1cc[n+](C)c1.F[B-](F)(F)F came in with a viscosity of 0.39 mPa·s.
Still for that read-out and setting: the result for `CCCOC(C)=O` + CCCCCCCCn1cc[n+](C)c1.F[B-](F)(F)F reads 0.56 mPa·s; that for `CCOC(C)=O` + CCCCCCCCn1cc[n+](C)c1.F[B-](F)(F)F, 0.44 mPa·s.
Still for that read-out and setting: the result for `COC(C)=O` + CCCCCCCCn1cc[n+](C)c1.F[B-](F)(F)F reads 0.39 mPa·s.
Take `CCCCCCCCn1cc[n+](C)c1.F[B-](F)(F)F` + CCCCOC(C)=O: the viscosity worked out at 336 mPa·s (x2 = 0); 124.4 mPa·s (x2 = 0.1989); 74.3 mPa·s (x2 = 0.3002); 45.91 mPa·s (x2 = 0.3991); 27.13 mPa·s (x2 = 0.502); 20.31 mPa·s (x2 = 0.5548). The viscosity (x2 = 0.6024) was found to be 15.79 mPa·s; the viscosity (x2 = 0.654) is 11.56 mPa·s; the viscosity (x2 = 0.7075) came out at 8.27 mPa·s; the viscosity (x2 = 0.8007) came out at 4.31 mPa·s; the viscosity (x2 = 0.95) is 1.14 mPa·s.
Compound `CCCCCCCCn1cc[n+](C)c1.F[B-](F)(F)F` + CCCOC(C)=O showed a viscosity (x2 = 0) of 336 mPa·s; a viscosity (x2 = 0.1006) of 198.9 mPa·s; a viscosity (x2 = 0.197) of 121.1 mPa·s; a viscosity (x2 = 0.2972) of 75.8 mPa·s; a viscosity (x2 = 0.4992) of 25.67 mPa·s; a viscosity (x2 = 0.6013) of 14.19 mPa·s. The viscosity was found to be 10.55 mPa·s (x2 = 0.6504); 7.48 mPa·s (x2 = 0.7065); 3.75 mPa·s (x2 = 0.7992); 1.51 mPa·s (x2 = 0.9043); 0.91 mPa·s (x2 = 0.9529).
`CCCCCCCCn1cc[n+](C)c1.F[B-](F)(F)F` + CCOC(C)=O showed a viscosity (x2 = 0) of 336 mPa·s; a viscosity (x2 = 0.1092) of 181 mPa·s; a viscosity (x2 = 0.2953) of 69.8 mPa·s; a viscosity (x2 = 0.4999) of 23.13 mPa·s; a viscosity (x2 = 0.5507) of 17.01 mPa·s; a viscosity (x2 = 0.7012) of 6.56 mPa·s. For the same compound, under “x2 = 0.9005”, the viscosity is 1.284 mPa·s.
With `CCCCCCCCn1cc[n+](C)c1.F[B-](F)(F)F` + COC(C)=O, the viscosity is given as 336 mPa·s (x2 = 0); 188 mPa·s (x2 = 0.1173); 70 mPa·s (x2 = 0.2964); 34.24 mPa·s (x2 = 0.4063); 24.78 mPa·s (x2 = 0.4511); 18.4 mPa·s (x2 = 0.4964). Also, the viscosity reads like this: (x2 = 0.6056) 10.26 mPa·s; (x2 = 0.6519) 7.54 mPa·s; (x2 = 0.7027) 5.04 mPa·s; (x2 = 0.8989) 1.03 mPa·s.
